From patent US9643933B2, “Compounds useful as antibiotic tolerance inhibitors” (priority 2013, dated 2017)

Tested on: Pyocyanin
Assay: Pyocyanin Inhibition Assay
Assay type: cell-based, P. aeruginosa, strain PA14
Details: Pseudomonas aeruginosa, PA14, 24 h, read-out: Pyocyanin Inhibition No. IC50 (μM)
Description: Test compounds are dissolved in DMSO at 10 mM and stored at −20° C. until needed. Seven test concentrations from 0.0032 micromolar to 31.6 micromolar are used for each compound.
P. aeruginosa, strain PA14, is inoculated into 5 mL of LB broth in a 15-mL sterile glass culture tube and incubated overnight at 37° C. under shaking (˜240 rpm). The overnight culture is then diluted in LB Broth to give an OD600=0.04 (T0 culture). Colony Forming Units (CFU)/mL of the overnight culture and T0 culture are determined by a series of 1:10 serial dilutions in sterile saline. 4×20 μL of each dilution is seeded on LB agar plates and incubated at 35±2° C. for 20 hours. CFU/mL is determined from the dilution that gives 2 to 50 colonies/20 μL.
For concentration response curve (CRC) experiments, internal standard, 2-((5-nitro-1H-indol-2-yl)thio)-N-(4-phenoxyphenyl)acetamide, a compound previously identified as an MvfR inhibitor (see Example 1 of US 2014-0066454 (WO 2012/116010)), and test compounds are serially diluted in DMSO to 200 times each final concentration (0.5% DMSO fmal), and 1 μL/well is dispensed in duplicate into 2 mL wells of a 96-well deep well plate. 200 μL/well of T0 culture are added to each internal standard/test compound well. Wells containing only T0 culture (200 200 μL/well) are used to determine pyocyanin control level and wells containing only LB broth (blank wells) are also included in the plate.
The plate is sealed and incubated at 37° C. under shaking (˜700 rpm) using a microtiter shaker for 24 hours. At the end of the incubation period, the plate is centrifuged at 4,000 g for 40 minutes at room temperature, 100 μL/well of the supernatant is transferred to a 96-microtiter PS flat-bottom plate, and absorbance at 690 nm is determined using SPECTROstar® Nano microplate reader. Pyocyanin concentration (M) is determined using the equation C=A690/(ε×d), where ε is the Pyocyanin extinction coefficient, at A690 nm ε is 4,310 M^−1 cm^−1 and d is the experimentally derived pathlength. The level of pyocyanin in the presence of test compound is expressed as percentage of inhibition with respect to the control. Curve fitting and IC50 determination were carried out using a four-parameter logistic model using GraphPad Prism v.5.

`O=C(CSc1nc2cc(C(=O)O)ccc2[nH]1)Nc1ccc(Cl)cc1` [Compound 97] and `COC(=O)c1ccc2[nH]c(SCC(=O)Nc3ccc(Cl)cc3)nc2c1` [Compound 109] cannot be ordered by IC50: over 10 µM for the first, over 10 µM for the second.

`CS(=O)(=O)c1ccc2[nH]c(SCC(=O)Nc3ccc(Cl)cc3)nc2c1` [Compound 98] and `NS(=O)(=O)c1ccc2[nH]c(SCC(=O)Nc3ccc(Cl)cc3)nc2c1` [Compound 99] cannot be ordered by IC50: over 10 µM for the first, over 10 µM for the second.

`O=C(CSc1nc2ccncc2[nH]1)Nc1ccc(Cl)cc1` [Compound 100] and `O=C(CSc1nc2cccnc2[nH]1)Nc1ccc(Cl)cc1` [Compound 101] cannot be ordered by IC50: over 10 µM for the first, over 10 µM for the second.

`N#Cc1ccc(NC(=O)CSc2nc3cnccc3[nH]2)cc1` [Compound 102] and `N#Cc1ccc(NC(=O)CSc2nc3cc(O)ccc3[nH]2)cc1` [Compound 130] cannot be ordered by IC50: over 10 µM for the first, over 10 µM for the second.

`N#Cc1ccc(NC(=O)CSc2nc3ncccc3[nH]2)cc1` [Compound 103] and `N#Cc1ccc(NC(=O)CSc2nc3ccc(-c4ncco4)cc3[nH]2)cc1` [Compound 128] cannot be ordered by IC50: over 10 µM for the first, over 10 µM for the second.

`CS(=O)(=O)c1ccc2[nH]c(SCC(=O)Nc3ccc(C#N)cc3)nc2c1` [Compound 107] and `N#Cc1ccc(NC(=O)CSc2nc3cc(S(N)(=O)=O)ccc3[nH]2)cc1` [Compound 108] cannot be ordered by IC50: over 10 µM for the first, over 10 µM for the second.

`O=C(CSc1nc2ccc(-c3ncccn3)cc2[nH]1)Nc1ccc(Cl)cc1` [Compound 114] and `O=C(CSc1nc2ccc(-c3ncco3)cc2[nH]1)Nc1ccc(Cl)cc1` [Compound 127] cannot be ordered by IC50: over 10 µM for the first, over 10 µM for the second.

`CNC(=O)c1ccc2[nH]c(SCC(=O)Nc3ccc(Cl)cc3)nc2c1` [Compound 115] and `CNC(=O)c1ccc2[nH]c(SCC(=O)Nc3ccc(C#N)cc3)nc2c1` [Compound 129] cannot be ordered by IC50: over 10 µM for the first, over 10 µM for the second.

`CN(C)C(=O)c1ccc2[nH]c(SCC(=O)Nc3ccc(Cl)cc3)nc2c1` [Compound 118] and `CN(C)C(=O)c1ccc2[nH]c(SCC(=O)Nc3ccc(C#N)cc3)nc2c1` [Compound 119] cannot be ordered by IC50: over 10 µM for the first, over 10 µM for the second.

`Cc1ccc(NC(=O)C(C)Sc2nc3ccc(Cl)cc3[nH]2)cc1` (stereo not drawn) [Compound 120] and `CC(=O)c1ccc(NC(=O)CSc2nc3ccc(C)cc3[nH]2)cc1` [Compound 124] cannot be ordered by IC50: over 10 µM for the first, over 10 µM for the second.

`Cc1cccc(NC(=O)CSc2nc3cccnc3[nH]2)c1` [Compound 121] and `Cc1ccc(NC(=O)CSc2nc3cccnc3[nH]2)cc1` [Compound 133] cannot be ordered by IC50: over 10 µM for the first, over 10 µM for the second.

`O=C(CSc1nc2cccnc2[nH]1)Nc1ccccc1` [Compound 122] and `O=C(CSc1nc2ccncc2[nH]1)Nc1ccccc1F` [Compound 132] cannot be ordered by IC50: over 10 µM for the first, over 10 µM for the second.

`CC(=O)Nc1cccc(NC(=O)CSc2nc3cc(C)ccc3[nH]2)c1` [Compound 123] and `O=C(CSc1nc2cc(O)ccc2[nH]1)Nc1ccc(Cl)cc1` [Compound 131] cannot be ordered by IC50: over 10 µM for the first, over 10 µM for the second.

First: Cc1cc(Cl)ccc1NC(=O)CSc1nc2cc(C#N)ccc2[nH]1 [Compound 160, N-(4-chloro-2-methylphenyl)-2-((5-cyano-1H-benzo[d]imidazol-2-yl)thio)acetamide]
Second: N#Cc1ccc2[nH]c(SCC(=O)Nc3ccc(Cl)cc3Cl)nc2c1 [Compound 167, 2-((5-Cyano-1H-benzo[d]imidazol-2-yl)thio)-N-(2,4-dichlorophenyl)acetamide]
The IC50 of the first is higher: 1 to 10 µM for the first, 0.1 to 1 µM for the second. The second is the more potent here.

First: COc1cc(Oc2cccnc2)ccc1NC(=O)CSc1nc2cc(Cl)ccc2[nH]1 [Compound 161, 2-((5-chloro-1H-benzo[d]imidazol-2-yl)thio)-N-(2-methoxy-4-(pyridin-3-yloxy)phenyl)acetamide]
Second: Cc1cc(Oc2cccnc2)ccc1NC(=O)CSc1nc2cc(Cl)ccc2[nH]1 [Compound 163, 2-((5-Chloro-1H-benzo[d]imidazol-2-yl)thio)-N-(2-methyl-4-(pyridin-3-yloxy)phenyl)acetamide]
The IC50 of the first is lower: under 0.1 µM for the first, 0.1 to 1 µM for the second. The first is the more potent here.

`O=C(CSc1nc2cc(Cl)ccc2[nH]1)Nc1ccc(Oc2cccnc2)cc1O` [Compound 162, 2-((5-Chloro-1H-benzo[d]imidazol-2-yl)thio)-N-(2-hydroxy-4-(pyridin-3-yloxy)phenyl)acetamide] and `O=C(CSc1nc2cc(Cl)ccc2[nH]1)Nc1ccc(Oc2cccnc2)cc1Cl` [Compound 165, 2-((5-Chloro-1H-benzo[d]imidazol-2-yl)thio)-N-(2-chloro-4-(pyridin-3-yloxy)phenyl)acetamide] cannot be ordered by IC50: under 0.1 µM for the first, under 0.1 µM for the second.

`COc1cc(Cl)cc2nc(SCC(=O)Nc3ccc(Oc4cccnc4)cc3)[nH]c12` [Compound 164, 2-((5-chloro-7-methoxy-1H-benzo[d]imidazol-2-yl)thio)-N-(4-(pyridin-3-yloxy)phenyl)acetamide] and `CC(C)(O)c1cc(Cl)cc2nc(SCC(=O)Nc3ccc(Oc4cccnc4)cc3)[nH]c12` [Compound 171, 2-((5-chloro-7-(2-hydroxypropan-2-yl)-1H-benzo[d]imidazol-2-yl)thio)-N-(4-(pyridin-3-yloxy)phenyl)acetamide] cannot be ordered by IC50: under 0.1 µM for the first, under 0.1 µM for the second.

`COc1cc(Cl)cc2nc(SCC(=O)Nc3ccc(Cl)cc3)[nH]c12` [Compound 166, 2-((5-Chloro-7-methoxy-1H-benzo[d]imidazol-2-yl)thio)-N-(4-chlorophenyl)acetamide] and `COc1cc(Oc2cccnc2)ccc1NC(=O)CSc1nc2cc(C#N)ccc2[nH]1` [Compound 169, 2-((5-Cyano-1H-benzo[d]imidazol-2-yl)thio)-N-(2-methoxy-4-(pyridin-3-yloxy)phenyl)acetamide] fall in the same range of IC50: 0.1 to 1 µM for the first, 0.1 to 1 µM for the second.

First: Cc1cc(Oc2cccnc2)ccc1NC(=O)CSc1nc2cc(C#N)ccc2[nH]1 [Compound 168, 2-((5-Cyano-1H-benzo[d]imidazol-2-yl)thio)-N-(2-methyl-4-(pyridin-3-yloxy)phenyl)acetamide]
Second: N#Cc1ccc2[nH]c(SCC(=O)Nc3ccc(Oc4cccnc4)cc3Cl)nc2c1 [Compound 170, N-(2-chloro-4-(pyridin-3-yloxy)phenyl)-2-((5-cyano-1H-benzo[d]imidazol-2-yl)thio)acetamide]
The IC50 of the first is higher: 0.1 to 1 µM for the first, under 0.1 µM for the second.

`O=C(C[C@H](O)c1nc2ccc(Cl)cc2[nH]1)Nc1ccc(Oc2cccnc2)cc1` [Compound 172, (S)-3-(6-chloro-1H-benzo[d]imidazol-2-yl)-3-hydroxy-N-(4-(pyridin-3-yloxy)phenyl)propanamide] gave an IC50 of 1 to 10 µM.
